PubChem BioAssay (NCI)
Where “and” joins values, the source holds several entries; their conditions need not be identical. Identical values can stand only once.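 Results reflect a 48-hour exposure of cells in 96-well plates to compound at five concentrations. GI50: concentration for 50% inhibition of growth. TGI marks complete inhibition of growth.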

Assays:
Test in all cases: NCI-60 cell line screen, 48 h
EKVX NSCLC = system: EKVX NSCLC
IGROV1 ovarian = system: IGROV1 ovarian
NCI/ADR-RES ovarian = system: NCI/ADR-RES ovarian
PC-3 prostate = system: PC-3 prostate
SF-295 CNS = system: SF-295 CNS
SNB-75 CNS = system: SNB-75 CNS
SR leukemia = system: SR leukemia
U251 CNS = system: U251 CNS
UACC-257 melanoma = system: UACC-257 melanoma
UO-31 renal = system: UO-31 renal

SMILES	GI50 (EKVX NSCLC)	TGI (EKVX NSCLC)	GI50 (IGROV1 ovarian)	TGI (IGROV1 ovarian)	GI50 (NCI/ADR-RES ovarian)	TGI (NCI/ADR-RES ovarian)	GI50 (PC-3 prostate)	TGI (PC-3 prostate)	GI50 (SF-295 CNS)	TGI (SF-295 CNS)	GI50 (SNB-75 CNS)	TGI (SNB-75 CNS)	GI50 (SR leukemia)	TGI (SR leukemia)	GI50 (U251 CNS)	TGI (U251 CNS)	GI50 (UACC-257 melanoma)	TGI (UACC-257 melanoma)	GI50 (UO-31 renal)	TGI (UO-31 renal)
COC(=O)[C@]12CC[C@@H](C)[C@H](C)[C@@H]1C1=CC[C@@H]3[C@@]4(C)C=C(O)C(=O)[C@@]5(C)COC(=C54)C[C@@]3(C)[C@]1(C)CC2	8.37 µM	26.5 µM	8.42 µM	29.6 µM	14.3 µM	45.6 µM	4.77 µM	18.5 µM	13 µM	28.7 µM	14.8 µM	43.1 µM	2.69 µM	8.77 µM	12.6 µM	30.7 µM	4.32 µM	18.8 µM	10.1 µM	24.4 µM
Cc1cc(Nc2ncnc3ccc(NC4=NC(C)(C)CO4)cc23)ccc1Oc1ccn2ncnc2c1	5.02 µM	> 10 µM	12.5 µM and > 10 µM	> 100 µM	17.1 µM and > 10 µM	89.2 µM and > 10 µM	15.7 µM and > 10 µM	66.6 µM and > 10 µM	14.9 µM and > 10 µM	38.3 µM and > 10 µM	15.6 µM and > 10 µM	51.9 µM and > 10 µM	14.7 µM and > 10 µM	43.8 µM and > 10 µM	13.4 µM and > 10 µM	35.7 µM and > 10 µM	16.9 µM and > 10 µM	33.1 µM and > 10 µM	6.29 µM and > 10 µM	84.4 µM and > 10 µM
CC(=O)OC1CC2(O)C3CCC4CC(O)CCC4(C)C3CCC2(C)C1C1=CC(=O)OC1 (stereo not given)		0.159 µM		1.77 µM		0.298 µM		0.373 µM		0.222 µM		0.618 µM		0.131 µM		0.427 µM		0.773 µM		0.27 µM
COc1cc(/C=C2\CCC(CN(C)C)C2=O)ccc1OC(=O)c1ccccc1 (stereo not given)		28.1 µM		27.9 µM		48.7 µM		30 µM		32 µM		35 µM		6.97 µM		29.8 µM		26.6 µM		29.8 µM
Cn1cc(-c2cnc3ccc4ccc(CS(=O)(=O)NCc5ccccn5)cc4c(=O)c3c2)cn1	44.9 µM	> 100 µM	22.1 µM	> 100 µM	23.5 µM	> 100 µM	31.3 µM	> 100 µM	3.61 µM	> 100 µM	6.45 µM	47.8 µM	3.17 µM	> 100 µM	21.6 µM	> 100 µM	15 µM	32.2 µM	12.6 µM	> 100 µM
C=CC(=O)N[C@H]1CCOC[C@H]1Nc1ncc2cc(-c3c(Cl)c(OC)cc(OC)c3Cl)ccc2n1	4.31 µM	94.3 µM	23.7 µM	> 100 µM	20.7 µM	> 100 µM	14.8 µM	> 100 µM	16 µM	> 100 µM	12 µM	> 100 µM	10.6 µM	> 100 µM	26.5 µM	> 100 µM	32.3 µM	> 100 µM	4.28 µM	> 100 µM
NC1=NC(c2ccc(Cl)cc2)C2=C(N1)/C(=C/c1ccc(Cl)cc1)CCC2 (stereo not given)	13.3 µM	78.4 µM	15 µM	> 64.4 µM	12.2 µM	> 100 µM	7.82 µM	56.3 µM	5.71 µM	25.8 µM	16.4 µM	59.3 µM	3.69 µM	9.84 µM	3.38 µM	12.2 µM	7.14 µM	28.1 µM	9.76 µM	27.9 µM
O=C(Nc1ccc(Cl)cc1)c1cc(-c2ccc(Cl)cc2)c2sc(=O)[nH]c2n1	1.63 µM	11.7 µM	2.83 µM	28.9 µM	1.98 µM	7.61 µM	1.66 µM	12.2 µM	1.56 µM	4.37 µM	1.7 µM	8.03 µM	3.63 µM	> 100 µM	1.88 µM	11.8 µM	1.19 µM	4.69 µM	1.59 µM	5.36 µM
c1cn2cc(-c3ccc4cn[nH]c4c3)nc(Nc3ccc(N4CCOCC4)cc3)c2n1	14.8 µM	41.8 µM	16.5 µM	46 µM	11.1 µM	32.4 µM	14.7 µM	35.4 µM	10.6 µM	29.5 µM	1.46 µM	13.3 µM	6.66 µM	27.5 µM	10 µM	21.6 µM	16.4 µM	44.8 µM	14.6 µM	34.8 µM
CCOC(=O)/C=C/C(C(=O)/C=C/c1ccc(O)c(OC)c1)=C(O)\C=C\c1ccc(O)c(OC)c1	5.75 µM	42 µM	11 µM	93.8 µM	2.13 µM	6.94 µM	12.8 µM	> 100 µM	14.6 µM	47 µM	11.2 µM	28.7 µM	11 µM	> 100 µM	0.613 µM	12.5 µM	2.06 µM	4.9 µM	16.9 µM	49.1 µM
O=C(O)c1cc2cc(OCc3ccccc3)c(OCc3ccccc3)cc2[nH]1	17.8 µM	38.9 µM	24.9 µM	54.2 µM	20.2 µM	49.1 µM	23 µM	68.5 µM	17.6 µM	40.1 µM	17.3 µM	55.6 µM	21.8 µM	> 100 µM	17.7 µM	37 µM	22.2 µM	62.9 µM	13.8 µM	27.6 µM
Cc1cc(Cc2cc(C)cc(C(C)(C)C)c2O)c(O)c(C(C)(C)C)c1	2.81 µM	12.1 µM	5.24 µM	16.5 µM	10.1 µM	21.8 µM	5.15 µM	18.6 µM	2.54 µM	6.23 µM	11.9 µM	24.3 µM	4.46 µM	45.9 µM	5.74 µM	17.5 µM	9.55 µM	21.8 µM	4.58 µM	19 µM
Cc1cc(C)c(O)c(CN(C)Cc2cc(Cl)cc(Cl)c2O)c1	4.52 µM	30.7 µM	2.2 µM	8.85 µM	2.89 µM	12.5 µM	6.97 µM	42.3 µM	2.18 µM	6.18 µM	11.5 µM	36.4 µM	3.69 µM	24.5 µM	4.01 µM	17.1 µM	3.14 µM	12.1 µM	1.64 µM	6.58 µM
Cc1ccc2c(O)c(O)cc(NC(C)CCCN)c2n1 (stereo not given)	25.3 µM	> 83.1 µM	14.2 µM	47.7 µM	> 66.9 µM	> 100 µM	22.9 µM	> 66.5 µM	> 48 µM	> 74.2 µM	24.6 µM	> 62.7 µM	30.5 µM	79.3 µM	3.67 µM	14.8 µM	19.8 µM	54.5 µM	7.77 µM	43 µM
O=C(O)c1ccc(N/C=C2\C(=O)c3ccccc3OC2O)cc1O (stereo not given)	23.9 µg/mL	82.5 µg/mL	12.8 µg/mL	47.3 µg/mL	22.3 µg/mL	78.6 µg/mL	31.6 µg/mL	107 µg/mL	5.96 µg/mL	28.7 µg/mL	17.7 µg/mL	84.3 µg/mL	5.21 µg/mL	41 µg/mL	17.2 µg/mL	45.1 µg/mL	28.9 µg/mL	93.1 µg/mL	6.68 µg/mL	36.4 µg/mL
COc1ccc(Cl)cc1NC(=O)C(Br)C(Br)C(=O)O (stereo not given)	21.9 µM	> 100 µM	33.2 µM	> 73.5 µM	3.03 µM	9.26 µM	13.4 µM	> 100 µM	38.9 µM	> 100 µM	26.6 µM	> 60.1 µM	3.43 µM	> 100 µM	6.62 µM	20.9 µM	11 µM	40.5 µM	19.2 µM	43.6 µM
S=C1Nc2ccc(Cl)cc2C2(c3ccccc3)N3CCN=C3NN12 (stereo not given)	55.7 µM	> 100 µM	17.4 µM	40.9 µM	48.8 µM	> 100 µM	39.3 µM	> 100 µM	28.6 µM	> 100 µM	17.6 µM	> 100 µM	23.7 µM	88.8 µM	35.1 µM	> 100 µM	37 µM	> 100 µM	37.5 µM	> 100 µM
O=C(N/N=C/c1ccc([N+](=O)[O-])cc1)c1ccc2nc(-c3ccc(Cl)cc3)[nH]c2c1	3.2 µM	21.2 µM	3.04 µM	11.4 µM	12.6 µM	> 100 µM	0.42 µM	15.3 µM	3.4 µM	13.1 µM	2.78 µM	18 µM	0.566 µM	4.87 µM	2.91 µM	10.8 µM	3.37 µM	15.4 µM	6.05 µM	38.3 µM
Cc1ccc2c(c1)NC(=O)CC(c1ccccc1)=N2		> 100 µM		> 100 µM		> 100 µM		> 100 µM		> 100 µM		> 100 µM		64.2 µM		> 100 µM		> 100 µM		> 100 µM
COc1ccc(/C=C/C(=O)Oc2cc(O)cc(O)c2)cc1		> 100 µM		76.1 µM		> 100 µM		> 100 µM		52.4 µM		> 100 µM		> 100 µM		> 100 µM		> 100 µM		> 100 µM
c1ccc(-c2nc(-c3ccccc3)c(-c3ccccc3)[nH]2)cc1		> 100 µM		> 100 µM		> 100 µM		> 100 µM		> 100 µM		> 100 µM		46.3 µM		> 100 µM		> 100 µM		> 100 µM
C=C1C(=O)O[C@H]2[C@H]1CC/C(COC(=O)CSCC(=O)OC/C1=C/CC[C@@]3(C)O[C@H]3[C@H]3OC(=O)C(=C)[C@@H]3CC1)=C\CC[C@@]1(C)O[C@@H]21	1.82 µM	4.12 µM	1.47 µM	4.02 µM	12 µM	40.2 µM	2.21 µM	6.92 µM	10.2 µM	26.2 µM	3.13 µM	10.5 µM	0.282 µM	2.15 µM	3.19 µM	11.3 µM	1.76 µM	4.3 µM	1.44 µM	2.83 µM
C=CCC1(O)c2cccc(NCCO)c2C(=O)c2c(NCCO)cccc21	> 100 µM	> 100 µM	> 100 µM	> 100 µM	> 100 µM	> 100 µM	> 100 µM	> 100 µM	> 100 µM	> 100 µM	75.3 µM	> 100 µM	> 100 µM	> 100 µM	> 100 µM	> 100 µM	> 100 µM	> 100 µM	95.7 µM	> 100 µM
NS(=O)(=O)c1cccc(N=Cc2c(O)[nH]c3ccccc23)c1	> 25 µM	> 25 µM	> 20.2 µM	> 25 µM	> 25 µM	> 25 µM	> 25 µM	> 25 µM	> 25 µM	> 25 µM	> 25 µM	> 25 µM	> 25 µM	> 25 µM	> 25 µM	> 25 µM	> 25 µM	> 25 µM	> 22.7 µM	> 25 µM
O=C(O)c1cc(N=Cc2ccccc2O)cc(C(=O)O)c1		> 100 µM		> 100 µM		> 100 µM		> 100 µM		> 100 µM		> 100 µM		> 100 µM		> 100 µM		> 100 µM		> 100 µM
COc1ccc(C(=O)c2cc3c(OC)c(OC)c(OC)cc3[nH]2)cc1	5.14 µM	> 100 µM	9.68 µM	> 100 µM	3.2 µM	40.9 µM	> 100 µM	> 100 µM	6.72 µM	> 100 µM	6.84 µM	28.5 µM	0.295 µM	2.57 µM	5.2 µM	> 100 µM	> 100 µM	> 100 µM	6.19 µM	> 100 µM
